Laboratory results published in PubChem BioAssay AID1963867 (Molecular Pharmacology Branch, DTP, NCI, 2024).
pIC50: −log10 of the molar value.

Tested on: KRAS-mutant PDC tumor spheroid with HUVEC/MSC, viability
Assay: Anticancer human tumor 327498-153-R-J2-PDC patient-derived uterine carcinosarcoma cell line growth inhibition [KRAS2]
Settings: for pIC50: curve of first compound; for viability, T/C: stronger effect = lower value
Summary of the method: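 KRAS-mutant tumor cells were grown as spheroids with HUVEC endothelial cells and human MSCs as stroma. Targeted agents were tested alone and with KRAS pathway inhibitors. Doses started at or near clinical Cmax, or 10 microM, descending half-log.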

[1] = second compound 0.1 µM, first compound 0.01 µM
[2] = second compound 0.1 µM, first compound 0.0316 µM
[3] = second compound 0.1 µM, first compound 0.1 µM
[4] = second compound 0.1 µM, first compound 0.316 µM
[5] = second compound 0.1 µM, first compound 1 µM
[6] = second compound 0.316 µM, first compound 0.01 µM
[7] = second compound 0.316 µM, first compound 0.0316 µM
[8] = second compound 0.316 µM, first compound 0.1 µM
[9] = second compound 0.316 µM, first compound 0.316 µM
[10] = second compound 0.316 µM, first compound 1 µM
[11] = second compound 1 µM, first compound 0.01 µM
[12] = second compound 1 µM, first compound 0.0316 µM
[13] = second compound 1 µM, first compound 0.1 µM
[14] = second compound 1 µM, first compound 0.316 µM
[15] = second compound 1 µM, first compound 1 µM
[16] = second compound 3.16 µM, first compound 0.01 µM
[17] = second compound 3.16 µM, first compound 0.0316 µM
[18] = second compound 3.16 µM, first compound 0.1 µM
[19] = second compound 3.16 µM, first compound 0.316 µM
[20] = second compound 3.16 µM, first compound 1 µM
[21] = second compound 10 µM, first compound 0.01 µM
[22] = second compound 10 µM, first compound 0.0316 µM
[23] = second compound 10 µM, first compound 0.1 µM
[24] = second compound 10 µM, first compound 0.316 µM
[25] = second compound 10 µM, first compound 1 µM
[26] = second compound 0.1 µM, first compound 3.16 µM
[27] = second compound 0.1 µM, first compound 10 µM
[28] = second compound 0.316 µM, first compound 3.16 µM
[29] = second compound 0.316 µM, first compound 10 µM
[30] = second compound 1 µM, first compound 3.16 µM
[31] = second compound 1 µM, first compound 10 µM
[32] = second compound 3.16 µM, first compound 3.16 µM
[33] = second compound 3.16 µM, first compound 10 µM
[34] = second compound 10 µM, first compound 3.16 µM
[35] = second compound 10 µM, first compound 10 µM
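Note: spheroids exposed to agents for seven days before reading.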
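Throughout, for viability, T/C: 100% = DMSO vehicle wells so lower means fewer viable cells.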

Compound	pIC50 (second compound 0.1 µM)	pIC50 (second compound 0.316 µM)	pIC50 (second compound 1 µM)	pIC50 (second compound 3.16 µM)	pIC50 (second compound 10 µM)	viability, T/C [2]	viability, T/C [3]	viability, T/C [4]	viability, T/C [5]	viability, T/C [7]	viability, T/C [8]	viability, T/C [9]	viability, T/C [10]	viability, T/C [12]	viability, T/C [13]	viability, T/C [14]	viability, T/C [15]	viability, T/C [17]	viability, T/C [18]	viability, T/C [19]	also measured
CCN1CCN(Cc2ccc(Nc3ncc(F)c(-c4cc(F)c5nc(C)n(C(C)C)c5c4)n3)nc2)CC1 + C=CC(=O)N1CCN(c2nc(=O)n(-c3c(C)ccnc3C(C)C)c3nc(-c4c(O)cccc4F)c(F)cc23)C(C)C1	8.28	> 8.50	> 8.50	> 8.50	> 8.50	32.7%	30.6%	30.7%	35.1%	28.2%	31.1%	34.9%	40%	30.2%	33.5%	39%	38.3%	33.8%	32.7%	40.5%	viability, T/C (second compound 0.1 µM, first compound 0.00316 µM): 56.9%; viability, T/C [1]: 42.5%; viability, T/C (second compound 0.316 µM, first compound 0.00316 µM): 49.6%; viability, T/C [6]: 40.5%; viability, T/C (second compound 1 µM, first compound 0.00316 µM): 48.3%; viability, T/C [11]: 42%; viability, T/C (second compound 3.16 µM, first compound 0.00316 µM): 49.2%; viability, T/C [16]: 39%; viability, T/C [20]: 36.9%; viability, T/C (second compound 10 µM, first compound 0.00316 µM): 41.9%; viability, T/C [21]: 32.5%; viability, T/C [22]: 35.6%; viability, T/C [23]: 36.2%; viability, T/C [24]: 39.3%; viability, T/C [25]: 2.69%
COc1cc(Nc2ncc3c(n2)-c2ccc(Cl)cc2C(c2c(F)cccc2OC)=NC3)ccc1C(=O)O + CC1OCC2(CCN(c3cnc(Sc4ccnc(N)c4Cl)c(N)n3)CC2)C1N	> 7.50	> 7.50	> 7.50	> 7.50	> 7.50	14.7%	11.3%	9.61%	8.46%	11.9%	8.86%	8.33%	8.66%	9.52%	8.62%	7.21%	7.15%	7.99%	6.54%	6%	viability, T/C [26]: 10.4%; viability, T/C [27]: 10.4%; viability, T/C [28]: 9.93%; viability, T/C [29]: 9.67%; viability, T/C [30]: 8.7%; viability, T/C [31]: 7.62%; viability, T/C [20]: 5.95%; viability, T/C [32]: 6.67%; viability, T/C [33]: 5.35%; viability, T/C [22]: 7.28%; viability, T/C [23]: 6.61%; viability, T/C [24]: 6.26%; viability, T/C [25]: 6.94%; viability, T/C [34]: 6.28%; viability, T/C [35]: 5.22%
CC1OCC2(CCN(c3cnc(Sc4ccnc(N)c4Cl)c(N)n3)CC2)C1N (stereo not given) + C=CC(=O)N1CCN(c2nc(=O)n(-c3c(C)ccnc3C(C)C)c3nc(-c4c(O)cccc4F)c(F)cc23)C(C)C1	> 7.50	> 7.50	> 7.50	> 7.50	> 7.50	44.1%	34.8%	25.5%	25.2%	41.1%	33.4%	26.4%	23.3%	40.6%	31.6%	31.7%	22.9%	41.8%	37.4%	28.7%	viability, T/C [26]: 21%; viability, T/C [27]: 16.3%; viability, T/C [28]: 19.1%; viability, T/C [29]: 15.9%; viability, T/C [30]: 17.8%; viability, T/C [31]: 16.9%; viability, T/C [20]: 23.2%; viability, T/C [32]: 22.8%; viability, T/C [33]: 19.4%; viability, T/C [22]: 33.3%; viability, T/C [23]: 28%; viability, T/C [24]: 23.1%; viability, T/C [25]: 21.1%; viability, T/C [34]: 16.1%; viability, T/C [35]: 16.9%
CC1COCCN1c1cc(-c2ccnn2C)c2ccnc(-c3ccn[nH]3)c2n1 (stereo not given) + C=CC(=O)N1CCN(c2nc(=O)n(-c3c(C)ccnc3C(C)C)c3nc(-c4c(O)cccc4F)c(F)cc23)C(C)C1	7.89	> 8.00	> 8.00	> 8.00	> 8.00	24.8%	8.42%	5.52%	6.25%	21.4%	9%	6.3%	6.22%	23.3%	10.6%	7.15%	6.94%	19.8%	11.8%	8.81%	viability, T/C [1]: 57%; viability, T/C [26]: 5.47%; viability, T/C [6]: 46.7%; viability, T/C [28]: 6.06%; viability, T/C [11]: 40.1%; viability, T/C [30]: 6.78%; viability, T/C [16]: 42.5%; viability, T/C [20]: 7.29%; viability, T/C [32]: 6.89%; viability, T/C [21]: 28.5%; viability, T/C [22]: 14.4%; viability, T/C [23]: 11.9%; viability, T/C [24]: 9.29%; viability, T/C [25]: 8.01%; viability, T/C [34]: 6.76%
